Results from ChEMBL document CHEMBL1139224, “Discovery and metabolic stabilization of potent and selective 2-amino-N-(adamant-2-yl) acetamide 11beta-hydroxysteroid dehydrogenase type 1 inhibitors” (J Med Chem, 2007).
Each block holds one compound with its values, some of them ahead of it.

Assays:
[1] = Intrinsic clearance in human liver microsomes at 1 uM; format: ADME, Microsome
[2] = Intrinsic clearance in mouse liver microsomes at 1 uM; format: ADME, Microsome
[3] = target: T1, 11-beta-hydroxysteroid dehydrogenase type 2 (Homo sapiens, UniProt P80365); test: Inhibitory activity against human 11beta-HSD2 by SPA
T1 sequence (P80365 whole entry): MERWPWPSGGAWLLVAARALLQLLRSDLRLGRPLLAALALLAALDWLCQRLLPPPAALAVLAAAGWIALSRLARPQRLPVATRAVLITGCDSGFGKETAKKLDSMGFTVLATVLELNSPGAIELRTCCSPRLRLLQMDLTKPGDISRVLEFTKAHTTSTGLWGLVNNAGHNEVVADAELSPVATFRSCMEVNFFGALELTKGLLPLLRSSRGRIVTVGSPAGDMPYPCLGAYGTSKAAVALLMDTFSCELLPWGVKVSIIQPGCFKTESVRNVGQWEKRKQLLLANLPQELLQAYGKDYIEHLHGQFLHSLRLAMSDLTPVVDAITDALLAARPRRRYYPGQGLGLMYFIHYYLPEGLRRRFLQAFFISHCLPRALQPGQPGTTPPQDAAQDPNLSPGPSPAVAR

[4] = target: T2, 11-beta-hydroxysteroid dehydrogenase type 2 (Mus musculus, UniProt P51661); test: Inhibitory activity against mouse 11beta-HSD2 by SPA
T2 sequence (P51661 whole entry): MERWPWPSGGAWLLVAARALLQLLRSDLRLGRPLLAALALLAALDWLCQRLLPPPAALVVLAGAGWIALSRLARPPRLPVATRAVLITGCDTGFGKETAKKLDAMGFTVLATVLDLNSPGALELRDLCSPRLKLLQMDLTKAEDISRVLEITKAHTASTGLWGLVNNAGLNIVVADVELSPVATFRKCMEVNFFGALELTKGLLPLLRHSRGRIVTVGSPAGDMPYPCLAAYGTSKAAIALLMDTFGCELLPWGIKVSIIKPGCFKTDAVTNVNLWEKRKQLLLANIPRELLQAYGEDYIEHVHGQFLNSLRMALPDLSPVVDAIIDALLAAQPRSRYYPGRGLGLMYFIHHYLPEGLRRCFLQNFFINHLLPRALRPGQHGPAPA

[5] = target: 11-beta-hydroxysteroid dehydrogenase 1 (Mus musculus, UniProt P50172); test: Inhibition of mouse 11beta-HSD1 expressed in Escherichia coli by SPA
[6] = target: 11-beta-hydroxysteroid dehydrogenase 1 (Mus musculus) (UniProt P50172); test: Inhibition of mouse 11beta-HSD1 in DIO mouse brain at 30 mg/kg, po after 1 hr; format: organism-based; design: dose 30 mg/kg
[7] = target: 11-beta-hydroxysteroid dehydrogenase 1 (Mus musculus) (UniProt P50172); test: Inhibition of mouse 11beta-HSD1 in DIO mouse brain at 30 mg/kg, po after 7 hrs; format: organism-based; design: dose 30 mg/kg
[8] = target: 11-beta-hydroxysteroid dehydrogenase 1 (Rattus norvegicus, UniProt P16232); test: Inhibitory activity against rat 11beta-HSD1
[9] = target: T3, 11-beta-hydroxysteroid dehydrogenase type 2 (Rattus norvegicus, UniProt P50233); test: Inhibitory activity against rat 11beta-HSD2
T3 sequence (P50233 whole entry): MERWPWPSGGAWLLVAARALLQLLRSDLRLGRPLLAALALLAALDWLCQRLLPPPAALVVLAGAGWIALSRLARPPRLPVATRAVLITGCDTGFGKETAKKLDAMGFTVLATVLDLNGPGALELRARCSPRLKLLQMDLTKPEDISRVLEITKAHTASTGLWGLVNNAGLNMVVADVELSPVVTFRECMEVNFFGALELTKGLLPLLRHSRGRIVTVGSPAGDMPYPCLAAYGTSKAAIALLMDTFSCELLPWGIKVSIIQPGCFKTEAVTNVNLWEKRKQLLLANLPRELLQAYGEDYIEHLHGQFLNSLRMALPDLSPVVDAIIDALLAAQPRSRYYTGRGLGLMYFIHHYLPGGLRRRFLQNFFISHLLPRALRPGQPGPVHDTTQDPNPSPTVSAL

[10] = Intrinsic clearance in rat liver microsomes at 1 uM; format: ADME, Microsome
[11] = Half life in rat at 5 mg/kg, iv; format: ADME, organism-based; design: dose 5 mg/kg, route intravenous; details: in vivo
[12] = Volume of distribution in rat at 5 mg/kg, iv; format: ADME, organism-based; design: dose 5 mg/kg, route intravenous; details: in vivo, read-out: Vss
[13] = Plasma clearance in rat at 5 mg/kg, iv; format: ADME, organism-based; design: dose 5 mg/kg, route intravenous
[14] = Half life in rat at 5 mg/kg, po; format: ADME, organism-based; design: dose 5 mg/kg, route oral; details: in vivo
[15] = test system: Rattus norvegicus; test: Area under the curve in rat at 5 mg/kg, po; format: ADME, organism-based; design: dose 5 mg/kg, route oral; details: in vivo
[16] = Oral bioavailability in rat at 5 mg/kg, po; format: ADME, organism-based; details: in vivo
[17] = target: T4, 11-beta-hydroxysteroid dehydrogenase 1 (Homo sapiens, UniProt P28845); test: Inhibition of human 11beta-HSD1 expressed in Escherichia coli by SPA
[18] = target: T4, 11-beta-hydroxysteroid dehydrogenase 1; test: Inhibition of human 11beta-HSD1 expressed in HEK293 cells by FPIA; format: cell-based
[19] = Half life in mouse at 10 mg/kg, iv; format: ADME, organism-based; design: dose 10 mg/kg, route intravenous; details: in vivo
[20] = Volume of distribution in mouse at 10 mg/kg, iv; format: ADME, organism-based; design: dose 10 mg/kg, route intravenous; details: in vivo, read-out: Vdss
[21] = Plasma clearance in mouse at 10 mg/kg, iv; format: ADME, organism-based; design: dose 10 mg/kg, route intravenous
[22] = Half life in mouse at 10 mg/kg, po; format: ADME, organism-based; design: dose 10 mg/kg, route oral; details: in vivo
[23] = test system: Mus musculus; test: AUC in mouse at 10 mg/kg, po; format: ADME, organism-based, Plasma; design: dose 10 mg/kg, route oral; details: in vivo
[24] = Oral bioavailability in mouse at 10 mg/kg, po; format: ADME, organism-based; details: in vivo
[25] = target: 11-beta-hydroxysteroid dehydrogenase 1 (Mus musculus) (UniProt P50172); test: Inhibition of mouse 11beta-HSD1 in DIO mouse liver at 30 mg/kg, po after 1 hr; format: organism-based; design: dose 30 mg/kg
[26] = target: 11-beta-hydroxysteroid dehydrogenase 1 (Mus musculus) (UniProt P50172); test: Inhibition of mouse 11beta-HSD1 in DIO mouse liver at 30 mg/kg, po after 7 hrs; format: organism-based; design: dose 30 mg/kg
[27] = target: 11-beta-hydroxysteroid dehydrogenase 1 (Mus musculus) (UniProt P50172); test: Inhibition of mouse 11beta-HSD1 in DIO mouse adipose tissue at 30 mg/kg, po after 1 hr; format: organism-based; design: dose 30 mg/kg
[28] = target: 11-beta-hydroxysteroid dehydrogenase 1 (Mus musculus) (UniProt P50172); test: Inhibition of mouse 11beta-HSD1 in DIO mouse adipose tissue at 30 mg/kg, po after 7 hrs; format: organism-based; design: dose 30 mg/kg

T4 sequence (P28845 whole entry): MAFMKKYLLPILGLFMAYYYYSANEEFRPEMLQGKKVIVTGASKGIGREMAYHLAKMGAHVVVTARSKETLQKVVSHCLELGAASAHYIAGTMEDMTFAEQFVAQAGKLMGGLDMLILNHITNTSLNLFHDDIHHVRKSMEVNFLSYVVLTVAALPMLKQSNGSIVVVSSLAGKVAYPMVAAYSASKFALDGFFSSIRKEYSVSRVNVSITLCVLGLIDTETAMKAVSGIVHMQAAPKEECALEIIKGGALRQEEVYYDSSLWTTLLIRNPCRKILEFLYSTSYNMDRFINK
Chain of 11-beta-hydroxysteroid dehydrogenase 1 (Mus musculus, UniProt P50172) (P50172 whole entry): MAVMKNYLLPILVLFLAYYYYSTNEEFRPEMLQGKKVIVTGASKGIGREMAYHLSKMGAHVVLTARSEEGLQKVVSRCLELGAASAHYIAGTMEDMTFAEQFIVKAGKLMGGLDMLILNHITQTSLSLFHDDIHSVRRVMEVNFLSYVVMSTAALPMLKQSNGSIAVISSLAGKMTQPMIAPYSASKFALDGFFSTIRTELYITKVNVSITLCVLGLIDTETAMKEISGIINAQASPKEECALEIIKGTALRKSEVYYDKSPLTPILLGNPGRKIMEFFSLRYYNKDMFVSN
Chain of 11-beta-hydroxysteroid dehydrogenase 1 (Mus musculus) (P50172 whole entry, looked up): as the sequence (P50172 whole entry) above
Chain of 11-beta-hydroxysteroid dehydrogenase 1 (Rattus norvegicus, UniProt P16232) (P16232 whole entry): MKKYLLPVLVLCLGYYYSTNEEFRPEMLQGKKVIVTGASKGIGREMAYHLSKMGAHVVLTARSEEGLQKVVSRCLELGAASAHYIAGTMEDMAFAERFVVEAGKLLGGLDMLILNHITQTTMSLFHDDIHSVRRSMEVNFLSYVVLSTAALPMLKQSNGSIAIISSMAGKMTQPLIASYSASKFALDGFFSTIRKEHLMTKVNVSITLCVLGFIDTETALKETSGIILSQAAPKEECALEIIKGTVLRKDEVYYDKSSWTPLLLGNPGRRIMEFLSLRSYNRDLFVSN

SMILES: CC(C)(C(=O)N[C@H]1C2CC3CC1C[C@](O)(C3)C2)N1CCN(c2ccc(C(F)(F)F)cn2)CC1
CLint scaled at 1 µM [1]: 100 mL/min/kg
CLint scaled at 1 µM [2]: 2170 mL/min/kg
IC50 [3]: > 100 µM
IC50 [4]: > 100 µM

SMILES: CC(C(=O)N[C@H]1C2C[C@@]3(O)CC1C[C@@](F)(C2)C3)N1CCN(c2ccc(C(F)(F)F)cn2)CC1 (mixture of isomers)
Ki [5]: 33 nM
CLint scaled at 1 µM [1]: < 16.7 mL/min/kg
CLint scaled at 1 µM [2]: 233 mL/min/kg

SMILES: CC(C(=O)N[C@H]1C2C[C@]3(O)CC1C[C@](F)(C2)C3)N1CCN(c2ccc(C(F)(F)F)cn2)CC1 (mixture of isomers)
Ki [5]: 910 nM
CLint scaled at 1 µM [1]: 16.7 mL/min/kg
CLint scaled at 1 µM [2]: 933 mL/min/kg

SMILES: C[C@@H](C(=O)N[C@H]1C2CC3CC1C[C@](O)(C3)C2)N1CC[C@@H](F)C1
Ki [17]: 21 nM
Ki [5]: 24 nM
IC50 [18]: 450 nM
CLint scaled at 1 µM [1]: < 16.7 mL/min/kg
CLint scaled at 1 µM [2]: < 100 mL/min/kg
IC50 [3]: > 100 µM
IC50 [4]: > 100 µM

SMILES: O=C(CN1CCN(c2ccc(Cl)cc2)CC1)NC1C2CC3CC(C2)CC1C3 (stereo not given)
Ki [5]: 21 nM
CLint scaled at 1 µM [1]: 583 mL/min/kg
CLint scaled at 1 µM [2]: 1050 mL/min/kg

SMILES: O=C(CN1CCN(c2ccc(C(F)(F)F)cn2)CC1)N[C@H]1C2CC3CC1C[C@@](O)(C3)C2
Ki [17]: 67 nM
Ki [5]: 300 nM
IC50 [18]: > 15000 nM
CLint scaled at 1 µM [1]: 183 mL/min/kg
CLint scaled at 1 µM [2]: 1080 mL/min/kg
IC50 [3]: > 10 µM
IC50 [4]: > 100 µM

SMILES: CO[C@]12CC3CC(C1)[C@@H](NC(=O)C(C)N1CCN(c4ccc(C(F)(F)F)cn4)CC1)C(C3)C2 (mixture of isomers)
Ki [5]: 18 nM
CLint scaled at 1 µM [1]: 50 mL/min/kg
CLint scaled at 1 µM [2]: 183 mL/min/kg

SMILES: N#Cc1cccnc1N1CCN(CC(=O)NC2C3CC4CC(C3)CC2C4)CC1 (stereo not given)
Ki [17]: 14 nM
Ki [5]: 53 nM
IC50 [18]: 260 nM
CLint scaled at 1 µM [1]: 1830 mL/min/kg
CLint scaled at 1 µM [2]: 6330 mL/min/kg
IC50 [3]: > 100 µM
IC50 [4]: > 100 µM

Other lines, results leading:

inhibition [6]: 37%
inhibition [7]: 25%
Ki [8]: 4 nM
IC50 [9]: > 100 µM
CLint scaled at 1 µM [10]: 83.3 mL/min/kg
half-life [11]: 60 min
Vd [12]: 1 L/kg
clearance [13]: 33.3 mL/min/kg
half-life [14]: 96 min
AUC [15]: 1 ug/hr.ml
bioavailability [16]: 37%
Ki [17]: 5 nM
Ki [5]: 15 nM
IC50 [18]: 29 nM
CLint scaled at 1 µM [1]: 50 mL/min/kg
CLint scaled at 1 µM [2]: 117 mL/min/kg
IC50 [3]: > 100 µM
IC50 [4]: > 100 µM
half-life [19]: 24 min
Vd [20]: 1.6 L/kg
clearance [21]: 55 mL/min/kg
half-life [22]: 60 min
AUC [23]: 1.9 ug/hr.ml
bioavailability [24]: 65%
inhibition [25]: 36%
inhibition [26]: 9%
inhibition [27]: 51%
inhibition [28]: 16%
SMILES: CC(C(=O)N[C@H]1C2CC3CC1C[C@](O)(C3)C2)N1CCN(c2ccc(C(F)(F)F)cn2)CC1 (mixture of isomers)

Ki [8]: 52 nM
IC50 [9]: > 100 µM
CLint scaled at 1 µM [10]: 66.7 mL/min/kg
Ki [5]: 7 nM
CLint scaled at 1 µM [1]: < 16.7 mL/min/kg
CLint scaled at 1 µM [2]: 383 mL/min/kg
IC50 [4]: > 100 µM
half-life [19]: 18 min
Vd [20]: 1.2 L/kg
clearance [21]: 120 mL/min/kg
half-life [22]: 60 min
AUC [23]: 0.8 ug/hr.ml
bioavailability [24]: 58%
SMILES: CC(C(=O)N[C@H]1C2CC3CC1C[C@](O)(C3)C2)N1CC(Oc2ccccc2F)C1 (stereo not given in full)

Ki [17]: 12 nM
Ki [5]: 9 nM
IC50 [18]: 180 nM
CLint scaled at 1 µM [1]: < 16.7 mL/min/kg
CLint scaled at 1 µM [2]: < 100 mL/min/kg
IC50 [3]: > 100 µM
IC50 [4]: > 100 µM
SMILES: C[C@H](C(=O)N[C@H]1C2CC3CC1C[C@](O)(C3)C2)N1CC[C@@H](F)C1
